Data as given in the OPERA property sets (Mansouri et al. 2018).

In order of rising melting point:
1. CCC(C)S (configuration not stated)  -165 °C
2. CCC(=O)OC  -87.5 °C
3. FC(F)(F)C(F)(F)C(F)(F)C(F)(F)N(C(F)(F)C(F)(F)C(F)(F)C(F)(F)F)C(F)(F)C(F)(F)C(F)(F)C(F)(F)F  -50 °C
4. COc1ccccc1  -37.5 °C
5. SCc1ccccc1  -30 °C
6. CCCCCCCCCC#N  -17.9 °C
7. O=C(Cl)c1ccco1  -2 °C
8. O=C1CCc2ccccc2C1  18 °C
9. COc1ccccc1C#N  24.5 °C
10. Ic1ccccc1I  27 °C
11. Oc1ccc(Cl)cc1Cl  45 °C
12. COc1ccc(C(C)=O)c(O)c1  52.5 °C
13. CCOC(=O)NC(C)(C)Cc1ccc(Cl)cc1  52.8 °C
14. Cc1cc(C)c(S(=O)(=O)Cl)c(C)c1  56 °C
15. Oc1cc(Cl)cc(Cl)c1Cl  62 °C
16. CCNc1cccc(O)c1  62 °C
17. CCCCOc1ccc(O)cc1  65.5 °C
18. COC(=O)c1cccc(C(=O)OC)c1  67.5 °C
19. COc1cc(C=CC=O)ccc1O  84 °C
20. CCCCCCCCCCCCCCCCCC(=O)CCCCCCCCCCCCCCCCC  89 °C
21. Oc1ccc(I)cc1  93.5 °C
22. CCC1=C(C[C@@H]2NCCc3cc(OC)c(OC)cc32)C[C@H]2c3cc(OC)c(OC)cc3CCN2C1  95 °C
23. CC1=C(C)C(=O)OC1=O  96 °C
24. C/C(=N\C#N)N(C)Cc1ccc(Cl)nc1  98.9 °C
25. CCOc1ccc(Cc2nccc3cc(OCC)c(OCC)cc23)cc1OCC  100 °C
26. OCc1cc(O)ccc1O  100 °C
27. O=C(O)Cc1ccc(Cl)cc1  106 °C
28. CCNC(N)=S  112 °C
29. CC(C)(C)c1cc([N+](=O)[O-])cc([N+](=O)[O-])c1O  126 °C
30. Nc1ccc(C(=O)O)c(N)c1  140 °C
31. CN(C)CCc1c[nH]c2ccc(O)cc12  146 °C
32. N#C[S-].[NH4+]  150 °C
33. O=c1cc(CO)occ1O  154 °C
34. O=C(O)Cc1c(Cl)ccc(Cl)c1Cl  161 °C
35. CC(=O)OCCN(CCC#N)c1ccc(N=Nc2nc3ccc([N+](=O)[O-])cc3s2)cc1  167 °C
36. CC(=O)Oc1ccc2c3c1O[C@H]1[C@@H](OC(C)=O)C=C[C@H]4[C@@H](C2)N(C)CC[C@@]341  173 °C
37. c1cnc2ccc3ncccc3c2c1  177 °C
38. Cc1cc(CC(=O)O)n(C)c1C(=O)c1ccc(Cl)cc1  178 °C
39. Nc1ccc2ccccc2c1S(=O)(=O)O  180 °C
40. C=C[C@H]1C[N@@]2CC[C@H]1C[C@H]2[C@H](O)c1ccnc2ccc(O)cc12  202 °C
41. COc1cc(C(=O)O)cc(OC)c1O  208 °C
42. CC[C@H]1C[C@@H]2C[C@H]3c4[nH]c5cc(OC)ccc5c4CC[N@@](C2)[C@@H]13  214 °C
43. CCC1(N2CCCCC2)C(=O)NC(=O)NC1=O  215 °C
44. CC1=C(/C=C/C(C)=C/C=C/C(C)=C/C=C/C=C(C)/C=C/C=C(C)/C=C/C2=C(C)C[C@@H](O)CC2(C)C)C(C)(C)C[C@H](O)C1  216 °C
45. C[N+]12CCC(CC1)C(OC(=O)C(O)(c1ccccc1)c1ccccc1)C2.[Br-] (configuration not stated)  240 °C
46. Clc1cc2c(oc3c(Cl)c(Cl)c(Cl)cc32)c(Cl)c1Cl  240 °C
47. O=C(O)c1ccc(NC(=O)[C@H](Cc2ccc(O)cc2)NC(=O)c2ccccc2)cc1  241 °C
48. C[C@@H](N)C(=O)O  292 °C

In order of falling boiling point:
1. CCCCCCCCCCCCCCCCCCCCCCCCCCCCCCCCCCCCCC  512 °C
2. Ic1ccccc1I  287 °C
3. COC(=O)c1cccc(C(=O)OC)c1  282 °C
4. CC1CCCC2(C)CCCCC12O (configuration not stated)  270 °C
5. CCOC(=O)C#Cc1ccccc1  265 °C
6. COc1ccccc1C#N  256 °C
7. CCCCCCCCCC#N  243 °C
8. COc1ccc(C(C)(C)C)cc1  238 °C
9. O=C1CCc2ccccc2C1  237 °C
10. CCOC(=O)N1CCNCC1  237 °C
11. CC1=C(C)C(=O)OC1=O  223 °C
12. CC(=O)OCCCOC(C)=O  210 °C
13. Oc1ccc(Cl)cc1Cl  210 °C
14. OCc1cccs1  207 °C
15. SCc1ccccc1  194 °C
16. CCOc1ccccc1C  184 °C
17. FC(F)(F)C(F)(F)C(F)(F)C(F)(F)N(C(F)(F)C(F)(F)C(F)(F)C(F)(F)F)C(F)(F)C(F)(F)C(F)(F)C(F)(F)F  178 °C
18. O=C(Cl)c1ccco1  173 °C
19. O=C(Cl)c1c(F)c(F)c(F)c(F)c1F  158 °C
20. CCC1CCNCC1  154 °C
21. COc1ccccc1  154 °C
22. CC=C(Cl)C=O  148 °C
23. CCSCC(C)C  134 °C
24. COCCCN  118 °C
25. CC(=O)OC(C)(C)C  97 °C
26. CCC(C)S (configuration not stated)  84.5 °C
27. CCC(=O)OC  79.8 °C

With COCCCN the ready biodegradability was “not readily biodegradable”.
For COc1ccccc1, the ready biodegradability was “readily biodegradable”.
In the case of Oc1ccc(I)cc1, the ready biodegradability is reported as “not readily biodegradable”.
For FC(F)(F)C(F)(F)C(F)(F)C(F)(F)N(C(F)(F)C(F)(F)C(F)(F)C(F)(F)F)C(F)(F)C(F)(F)C(F)(F)C(F)(F)F, the ready biodegradability was “not readily biodegradable”.
For CCCCCCCCCCCCCCCCCCCCCCCCCCCCCCCCCCCCCC, the ready biodegradability was “readily biodegradable”.
With COC(=O)c1cccc(C(=O)OC)c1 the ready biodegradability was “readily biodegradable”.
For Oc1ccc(Cl)cc1Cl, the ready biodegradability was “not readily biodegradable”.
In the case of N=C(N)N(c1ccccc1)c1ccccc1, the ready biodegradability is reported as “not readily biodegradable”.
With COc1cc(C(=O)O)cc(OC)c1O the ready biodegradability was “readily biodegradable”.
For Nc1ccc2ccccc2c1S(=O)(=O)O, the ready biodegradability was “not readily biodegradable”.

In order of falling log10 Koa:
1. Clc1cc2c(oc3c(Cl)c(Cl)c(Cl)cc32)c(Cl)c1Cl  10.9
2. Clc1ccc2ccc(Cl)c(Cl)c2c1  7.5
3. COc1ccccc1  4.01

In order of rising log10 vapour pressure (mmHg):
1. OC[C@H]1O[C@H](O)[C@H](O)[C@@H](O)[C@@H]1O  -13.1
2. CC(=O)Oc1ccc2c3c1O[C@H]1[C@@H](OC(C)=O)C=C[C@H]4[C@@H](C2)N(C)CC[C@@]341  -9.12
3. NCCCC[C@H](N)C(=O)O  -8.28
4. CCCN(CCC)C(=O)SCc1ccccc1  -6.29
5. Oc1cc(Cl)cc(Cl)c1Cl  -1.66
6. Oc1ccc(Cl)cc1Cl  -1.05
7. SCc1ccccc1  -0.384
8. FC(F)(F)C(F)(F)C(F)(F)C(F)(F)N(C(F)(F)C(F)(F)C(F)(F)C(F)(F)F)C(F)(F)C(F)(F)C(F)(F)C(F)(F)F  -0.258
9. COc1ccccc1  0.549
10. CC(=O)OC(C)(C)C  1.67
11. CCC(C)S (configuration not stated)  1.91
12. CCC(=O)OC  1.92

In order of rising log10 Koc (L/kg):
1. COc1ccccc1  1.54
2. C#CC(C)(C)NC(=O)c1ccc(F)cc1  1.68
3. O=C(O)Cc1c(Cl)ccc(Cl)c1Cl  1.8
4. Oc1ccc(Cl)cc1Cl  2.81
5. Oc1cc(Cl)cc(Cl)c1Cl  3.61

In order of falling log10 Henry constant (atm·m³/mol):
1. CCC(=O)OC  -3.76
2. CCCCCC=CC=O  -4.13
